This is an account of results in patent publication US20220402935A1, “HETEROCYCLIC COMPOUND” (FIMECS, INC., priority 2019, published 2022).

A value given as a limit tells only on which side of the number the result lay.

Test [1] concerns the target T1, human XIAP_BIR3 domain purified protein (Homo sapiens, UniProt P98170).
T1 construct: purchased R & D
The test is described as follows: XIAP binding inhibitory activity (HTRF, b-Smac ligand). Particulars: for IC50: second symbol of cell, read-out: XIAP binding inhibition IC50 value. The protocol: Human XIAP binding inhibitory activity was measured by the Homogeneous Time Resolved Fluorescence (HTRF) method with using commercially available human XIAP_BIR3 domain purified protein (R & D) and as a ligand a Smac N-terminal peptide (AVPIAQK (SEQ ID NO: 1)) (hereinafter referred to as “b-Smac”; Peptide Research Laboratories, Inc.) biotinylated at the C-terminus according to a conventional method.
The HTRF method will be described in detail below.
The test compound diluted with a reaction buffer (25 mM HEPES Buffer containing 100 mM NaCl, 0.1% BSA, and 0.1% triton X-100, pH 7.5) was added to a 384-well white shallow bottom plate (Greiner 784076) at 1 μL/well and flash centrifuged for 30 seconds. Subsequently, human XIAP_BIR3 domain purified protein was diluted with the reaction buffer to obtain a 90 nM sample diluent, and the resultant sample diluent was added to the above-mentioned white superficial plate at 4.5 μL/well and flash centrifuged for 30 seconds. Subsequently, b-Smac diluted to 90 nM with the reaction buffer was added to the above-mentioned white superficial plat at 4.5 μL/well and flash centrifuged for 30 seconds. A mixed solution of Anti-6 HIS-Cryptate (Eu^3+ Cryptate-conjugated mouse monoclonal antibody anti-6 Histidine; cisbio) and Streptavidin-XL^eat (Highgrade XL665-conjugated streptavidin; cisbio) both diluted 100-fold with HTRF detection buffer (cisbio) at a volume ratio of 1:1 was added to the above white superficial plate at 10 μL/well. After flash centrifuging the white shallow bottom plate for 30 seconds, the white shallow bottom plate was left at room temperature for 4 hours or more in the dark. The white superficial plate after being left was subjected to fluorescence intensity measurement (excitation wavelength: 320 nm, fluorescence wavelength: 665 nm and 615 nm) by EnVision (Perkin Elmer). The binding inhibition rate (%) was calculated based on the HTRF ratio in the presence of the test compound to the HTRF ratio in the absence of the test compound (fluorescence intensity at 665 nm/fluorescence intensity at 615 nm).
The XIAP binding inhibition rate (%) of test compounds was evaluated.
For orientation: Time-resolved FRET reads energy transfer from a long-lived donor to a nearby acceptor.

A further test has as its target T2, IRAK-M (Homo sapiens, UniProt Q9Y616).
T2 sequence (Q9Y616 1-596): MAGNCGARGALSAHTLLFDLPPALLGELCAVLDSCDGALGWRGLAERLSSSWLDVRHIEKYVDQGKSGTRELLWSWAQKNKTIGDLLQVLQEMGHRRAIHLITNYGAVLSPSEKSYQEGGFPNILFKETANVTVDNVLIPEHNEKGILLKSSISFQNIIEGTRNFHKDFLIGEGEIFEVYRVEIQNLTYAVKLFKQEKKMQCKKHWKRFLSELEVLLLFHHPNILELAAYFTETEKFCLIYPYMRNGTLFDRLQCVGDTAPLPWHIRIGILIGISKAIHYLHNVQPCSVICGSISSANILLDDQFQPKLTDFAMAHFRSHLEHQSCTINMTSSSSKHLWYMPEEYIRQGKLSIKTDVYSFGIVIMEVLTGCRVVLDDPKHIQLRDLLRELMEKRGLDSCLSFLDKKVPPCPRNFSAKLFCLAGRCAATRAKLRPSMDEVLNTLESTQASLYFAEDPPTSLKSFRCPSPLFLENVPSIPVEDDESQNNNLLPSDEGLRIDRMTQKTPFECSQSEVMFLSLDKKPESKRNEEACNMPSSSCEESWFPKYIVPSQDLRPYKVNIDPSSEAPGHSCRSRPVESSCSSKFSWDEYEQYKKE
The test is described as follows: IRAK-M binding inhibitory activity (KINOMEscan active site-dependent competitive assay). Details: purchased Eurofins Discover X. As to conditions: for IC50: second symbol of cell, read-out: IRAK-M binding inhibition IC50 value; for remaining binding at 1 µM: concentration of the test compound 1 μM, first symbol of cell, read-out: IRAK-M binding inhibition activity % Ctrl. In outline:
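Active site-dependent competition binding assay (KINOMEscan) against human IRAK-M. Result expressed as % Ctrl = (compound signal − positive control signal)/(DMSO signal − positive control signal) × 100, where DMSO = 100% Ctrl and control compound = 0% Ctrl.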

One may read the IC50 as the concentration that gives 50% inhibition. For orientation: inhibition means how much of the control response was suppressed.

T1 sequence (P98170 252-356 limits assumed): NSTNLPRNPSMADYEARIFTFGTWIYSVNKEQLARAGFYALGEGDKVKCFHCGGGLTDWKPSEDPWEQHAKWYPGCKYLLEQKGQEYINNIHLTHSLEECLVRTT

With `C[C@@H]1CN(CC(=O)N2CCN(C(=O)c3cc4cc(F)c(F)cc4n3C)C[C@H]2C)[C@@H](COCCOCCOCCOCCOc2cc(CN3CCC(Oc4ccnc5ccsc45)CC3)on2)CN1` [Example 19, 1-((R)-4-(5,6-difluoro-1-methyl-1H-indole-2-carbonyl)-2-methylpiperazin-1-yl)-2-((2R,5R)-5-methyl-2-(13-((5-((4-(thieno[3,2-b]pyridin-7-yloxy)piperidin-1-yl)methyl)isoxazol-3-yl)oxy)-2,5,8,11-tetraoxatridecyl)piperazin-1-yl)ethan-1-one], the IC50 is 300 to 3000 nM in test [1] and 300 to 1000 nM on IRAK-M.
In the case of `CN[C@@H](C)C(=O)N[C@H](C(=O)N1CCN(C(=O)c2ccc3c(c2)c(F)c(C)n3CCOCCOCCOc2cc(CN3CCC(Oc4ccnc5ccsc45)CC3)on2)CC1)C1CCCCC1` [Example 57, (S)-N-((S)-1-cyclohexyl-2-(4-(3-fluoro-2-methyl-1-(2-(2-(2-((5-((4-(thieno[3,2-b]pyridin-7-yloxy)piperidin-1-yl)methyl)isoxazol-3-yl)oxy)ethoxy)ethoxy)ethyl)-1H-indole-5-carbonyl)piperazin-1-yl)-2-oxoethyl)-2-(methylamino)propanamide], the IC50 in test [1] was in the range of 300 to 3000 nM. Further, the remaining binding at 1 µM at IRAK-M lay within 25 to 50%.
For the compound `CN[C@@H](C)C(=O)N[C@H](C(=O)N1CCN(C(=O)c2cc3cc(F)c(F)cc3n2CC(=O)N2CCC[C@@H]2COc2cc(CN3CCC(Oc4ccnc5ccsc45)CC3)on2)CC1)C1CCCCC1` [Example 31, (S)-N-((S)-1-cyclohexyl-2-(4-(5,6-difluoro-1-(2-oxo-2-((R)-2-(((5-((4-(thieno[3,2-b]pyridin-7-yloxy)piperidin-1-yl)methyl)isoxazol-3-yl)oxy)methyl)pyrrolidin-1-yl)ethyl)-1H-indole-2-carbonyl)piperazin-1-yl)-2-oxoethyl)-2-(methylamino)propanamide], in test [1] (concentration of the test compound 3 μM, first symbol of cell, read-out: XIAP binding inhibition rate), the inhibition at 3 µM is 25 to 50%. Besides, the remaining binding at 1 µM at IRAK-M is 25 to 50%.
With `CN[C@@H](C)C(=O)N[C@H](C(=O)N1CCN(C(=O)c2c(C(=O)N(C)CCOCCOCCOc3cc(CN4CCC(Oc5ccnc6ccsc56)CC4)on3)c3cc(F)ccc3n2C)CC1)C(C)(C)O` [Example 16, 5-fluoro-2-(4-((S)-3-hydroxy-3-methyl-2-((S)-2-(methylamino)propanamido)butanoyl)piperazine-1-carbonyl)-N,1-dimethyl-N-(2-(2-(2-((5-((4-(thieno[3,2-b]pyridin-7-yloxy)piperidin-1-yl)methyl)isoxazol-3-yl)oxy)ethoxy)ethoxy)ethyl)-1H-indole-3-carboxamide], the IC50 in test [1] was in the range of 300 to 3000 nM. Moreover, on IRAK-M, the remaining binding at 1 µM fell in the range of 25 to 50%.
As to `C[C@@H]1CN(CC(=O)N2CCN(C(=O)c3cc4cc(F)c(F)cc4n3C)C[C@H]2C)[C@@H](COCCOCCOc2cc(CN3CCC(Oc4ccnc5ccsc45)CC3)on2)CN1` [Example 20, 1-((R)-4-(5,6-difluoro-1-methyl-1H-indole-2-carbonyl)-2-methylpiperazin-1-yl)-2-((2R,5R)-5-methyl-2-((2-(2-((5-((4-(thieno[3,2-b]pyridin-7-yloxy)piperidin-1-yl)methyl)isoxazol-3-yl)oxy)ethoxy)ethoxy)methyl)piperazin-1-yl)ethan-1-one], in test [1], the 50% inhibitory concentration (IC50) was in the range of 300 to 3000 nM. In addition, at IRAK-M, the remaining binding at 1 µM lay in the range of 25 to 50%.
The corresponding values for `CN[C@@H](C)C(=O)N[C@H](C(=O)N1CCN(C(=O)c2ccc3c(c2)cc(C)n3CCOCCOc2cc(CN3CCC(Oc4ccnc5ccsc45)CC3)on2)CC1)C1CCCCC1` [Example 54, (S)-N-((S)-1-cyclohexyl-2-(4-(2-methyl-1-(2-(2-((5-((4-(thieno[3,2-b]pyridin-7-yloxy)piperidin-1-yl)methyl)isoxazol-3-yl)oxy)ethoxy)ethyl)-1H-indole-5-carbonyl)piperazin-1-yl)-2-oxoethyl)-2-(methylamino)propanamide] are less than 300 nM and 25 to 50%.
Taken in the same sequence, the figures for `CN[C@@H](C)C(=O)N[C@H](C(=O)N1CCN(C(=O)c2cc3cc(F)c(F)cc3n2CC(=O)N2CCOC[C@@H]2COc2cc(CN3CCC(Oc4ccnc5ccsc45)CC3)on2)CC1)C1CCCCC1` [Example 45, (S)-N-((S)-1-cyclohexyl-2-(4-(5,6-difluoro-1-(2-oxo-2-((R)-3-(((5-((4-(thieno[3,2-b]pyridin-7-yloxy)piperidin-1-yl)methyl)isoxazol-3-yl)oxy)methyl)morpholino)ethyl)-1H-indole-2-carbonyl)piperazin-1-yl)-2-oxoethyl)-2-(methylamino)propanamide] were 3000 to 30000 nM and 25 to 50%.
The corresponding values for `CN[C@@H](C)C(=O)N[C@@H](Cn1cccn1)C(=O)N1CCN(C(=O)c2c(C(=O)N(C)CCOCCOCCOc3cc(CN4CCC(Oc5ccnc6ccsc56)CC4)on3)c3cc(F)ccc3n2C)CC1` [Example 15, 5-fluoro-N,1-dimethyl-2-(4-((S)-2-((S)-2-(methylamino)propanamido)-3-(1H-pyrazol-1-yl)propanoyl)piperazine-1-carbonyl)-N-(2-(2-(2-((5-((4-(thieno[3,2-b]pyridin-7-yloxy)piperidin-1-yl)methyl)isoxazol-3-yl)oxy)ethoxy)ethoxy)ethyl)-1H-indole-3-carboxamide] are 300 to 3000 nM and 25 to 50%.
For `CN[C@@H](C)C(=O)N[C@H](C(=O)N1CCN(C(=O)c2c(C(=O)N(C)CCOCCOCCOc3cc(CN4CCC(Oc5ccnc6ccsc56)CC4)on3)c3cc(F)c(F)cc3n2C)C[C@H]1C)C1CCCCC1` [Example 11, 2-((R)-4-((S)-2-cyclohexyl-2-((S)-2-(methylamino)propanamido)acetyl)-3-methylpiperazine-1-carbonyl)-5,6-difluoro-N,1-dimethyl-N-(2-(2-(2-((5-((4-(thieno[3,2-b]pyridin-7-yloxy)piperidin-1-yl)methyl)isoxazol-3-yl)oxy)ethoxy)ethoxy)ethyl)-1H-indole-3-carboxamide], in test [1], the IC50 fell in the range of 3000 to 30000 nM. Besides, the remaining binding at 1 µM on IRAK-M is less than 25%.
Taken in the same sequence, the figures for `CN[C@@H](C)C(=O)N[C@H](C(=O)N1CCN(C(=O)c2ccc3c(c2)cc(C)n3CCOCCOCCOc2cc(CN3CCC(Oc4ccnc5ccsc45)CC3)on2)C[C@H]1C)C1CCCCC1` [Example 56, (S)-N-((S)-1-cyclohexyl-2-((R)-2-methyl-4-(2-methyl-1-(2-(2-(2-((5-((4-(thieno[3,2-b]pyridin-7-yloxy)piperidin-1-yl)methyl)isoxazol-3-yl)oxy)ethoxy)ethoxy)ethyl)-1H-indole-5-carbonyl)piperazin-1-yl)-2-oxoethyl)-2-(methylamino)propanamide] were 300 to 3000 nM and 50 to 75%.
Take `CN[C@@H](C)C(=O)N[C@H](C(=O)N1CCN(C(=O)c2c(C(=O)NCCOCCOc3cc(CN4CCC(Oc5ccnc6ccsc56)CC4)on3)c3cc(F)c(F)cc3n2C)CC1)C1CCCCC1` [Example 4, 2-(4-((S)-2-cyclohexyl-2-((S)-2-(methylamino)propanamido)acetyl)piperazine-1-carbonyl)-5,6-difluoro-1-methyl-N-(2-(2-((5-((4-(thieno[3,2-b]pyridin-7-yloxy)piperidin-1-yl)methyl)isoxazol-3-yl)oxy)ethoxy)ethyl)-1H-indole-3-carboxamide]: the figures for the IC50 (in test [1]; at IRAK-M) were 300 to 3000 nM and 300 to 1000 nM, respectively.
